{"source": "patent US10966994B2", "about": "“Thromboxane receptor antagonists” (ATXA THERAPEUTICS LIMITED, priority 2015, dated 2021)", "system": "MCT-induced PAH", "experiment": "Monocrotoline (MCT)-induced model of pulmonary arterial hypertension (PAH) in rats", "type": "in vivo, rat", "conditions": "day 28, oral BID, NTP42 and TP20 0.25 mg/kg/dose, Sildenafil 50 mg/kg/dose", "description": "FIGS. 19-23 show the efficacy of NTP42 in the monocrotoline (MCT)-induced model of pulmonary arterial hypertension (PAH) in rats. In brief, male Wistar/Kyoto rats were given a single dose of MCT (60 mg/kg, subcutaneously) and then treated with twice daily doses (oral dosing) for 28 days with either the drug vehicle, the test article NTP42 (0.25 mg/kg/dose, BID) or with the reference compounds Sildenafil (50 mg/kg/dose, BID) or TP20 (0.25 mg/kg/dose, BID). As a control, a group of rats were left untreated, i.e., no MCT or therapeutic drugs. At Day 28, post-MCT induction, rats were anaesthetised for cardiac surgery & hemodynamic parameters recorded. Thereafter, the trachea, heart & lungs were removed en masse, the wet weights of the heart & lungs recorded and then the lungs were harvested, fixed and processed for histopathology.\nAperio's ImageScope was used to analyze the digitally scanned H&E stained lung sections, where 10 random squares (approx. size or each square=1×10^6 μm^2) per lower, middle and upper section of lung tissue were selected for analysis. Within each square, all blood arterioles (complete arterioles within each square and those touching the right & bottom were assessed but not the left or top of the squares) were measured in ImageScope for luminal and total vessel diameter where the ratio of lumen to total vessel diameter was determined for each arteriole.\nFIGS. 24-27 show the effect of the test articles on the mean (±S.E.M.) lumen: total vessel diameter ratio for all arterioles (Total) and the arterioles categorized by size: small, <50 μm total diameter; medium, 50-100 μm and large, >100 μm.\nFIG. 27 presents data representing the mean (±SEM) lumen: total vessel diameter ratio for large arterioles (>100 μm)."}
{"smiles": "CCCc1nn(C)c2c(=O)[nH]c(-c3cc(S(=O)(=O)N4CCN(C)CC4)ccc3OCC)nc12", "note": "[Sildenafil, reference compound]", "values": [{"measurement": "lumen: total vessel diameter ratio versus animals treated with MCT-alone", "result": "significantly increased"}]}
